Source: patent US12570659B2, “Bicyclic heteroaryl compounds useful as IRAK4 inhibitors” (BRISTOL-MYERS SQUIBB COMPANY, priority 2019, dated 2026)

Legend:
JAK3 kinase = JAK3 kinase (Homo sapiens (Human), UniProt P52333); assay: JAK3 Homogeneous Time Resolved Fluorescence (HTRF) Assay; assay type: binding; details: for IC50: competition binding with fluorescein-labeled ATP competitive probe; for Ratio of JAK3 IC50 to IRAK4 IC50: selectivity for IRAK4 over JAK3
Outline: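 IC50 reflects displacement of a fluorescein-labeled ATP-site probe (at its Kd) from 1 nM tagged JAK3, detected via 0.2 nM Tb anti-His or anti-GST antibody. One-hour incubation; 495 and 520 nm emission ratios, background-subtracted, normalized to maximum signal; 11-point percent inhibition, 4-parameter logistic.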

IRAK4 = IRAK4 (Homo sapiens (Human), UniProt Q9NWZ3); assay: IRAK4 Inhibition Assay; assay type: biochemical; details: ATP 500 μM; IRAK4 0.6 nM; 60 min room temperature
Sequence of IRAK4 (Q9NWZ3 whole entry, species assumed): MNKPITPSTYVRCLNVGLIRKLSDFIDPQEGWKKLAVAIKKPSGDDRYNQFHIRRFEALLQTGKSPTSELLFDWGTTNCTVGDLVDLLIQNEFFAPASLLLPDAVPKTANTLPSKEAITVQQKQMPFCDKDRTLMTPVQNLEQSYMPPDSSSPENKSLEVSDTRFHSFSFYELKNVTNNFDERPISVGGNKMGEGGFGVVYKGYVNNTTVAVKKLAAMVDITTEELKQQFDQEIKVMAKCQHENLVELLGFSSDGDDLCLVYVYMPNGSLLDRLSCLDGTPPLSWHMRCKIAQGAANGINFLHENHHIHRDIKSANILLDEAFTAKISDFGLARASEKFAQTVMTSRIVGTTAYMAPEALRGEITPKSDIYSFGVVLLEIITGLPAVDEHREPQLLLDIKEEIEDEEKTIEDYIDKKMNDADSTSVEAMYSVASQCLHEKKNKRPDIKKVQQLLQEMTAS
Outline: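 Phosphorylated and unphosphorylated fluorescent substrate were resolved by microfluidic electrophoresis after termination with 35 mM EDTA. The room-temperature kinase reaction lasted 60 min after IRAK4, substrates and test compound were combined; vehicle-only defined 0% and no-enzyme 100% inhibition.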

Sequence of JAK3 kinase (P52333 whole entry): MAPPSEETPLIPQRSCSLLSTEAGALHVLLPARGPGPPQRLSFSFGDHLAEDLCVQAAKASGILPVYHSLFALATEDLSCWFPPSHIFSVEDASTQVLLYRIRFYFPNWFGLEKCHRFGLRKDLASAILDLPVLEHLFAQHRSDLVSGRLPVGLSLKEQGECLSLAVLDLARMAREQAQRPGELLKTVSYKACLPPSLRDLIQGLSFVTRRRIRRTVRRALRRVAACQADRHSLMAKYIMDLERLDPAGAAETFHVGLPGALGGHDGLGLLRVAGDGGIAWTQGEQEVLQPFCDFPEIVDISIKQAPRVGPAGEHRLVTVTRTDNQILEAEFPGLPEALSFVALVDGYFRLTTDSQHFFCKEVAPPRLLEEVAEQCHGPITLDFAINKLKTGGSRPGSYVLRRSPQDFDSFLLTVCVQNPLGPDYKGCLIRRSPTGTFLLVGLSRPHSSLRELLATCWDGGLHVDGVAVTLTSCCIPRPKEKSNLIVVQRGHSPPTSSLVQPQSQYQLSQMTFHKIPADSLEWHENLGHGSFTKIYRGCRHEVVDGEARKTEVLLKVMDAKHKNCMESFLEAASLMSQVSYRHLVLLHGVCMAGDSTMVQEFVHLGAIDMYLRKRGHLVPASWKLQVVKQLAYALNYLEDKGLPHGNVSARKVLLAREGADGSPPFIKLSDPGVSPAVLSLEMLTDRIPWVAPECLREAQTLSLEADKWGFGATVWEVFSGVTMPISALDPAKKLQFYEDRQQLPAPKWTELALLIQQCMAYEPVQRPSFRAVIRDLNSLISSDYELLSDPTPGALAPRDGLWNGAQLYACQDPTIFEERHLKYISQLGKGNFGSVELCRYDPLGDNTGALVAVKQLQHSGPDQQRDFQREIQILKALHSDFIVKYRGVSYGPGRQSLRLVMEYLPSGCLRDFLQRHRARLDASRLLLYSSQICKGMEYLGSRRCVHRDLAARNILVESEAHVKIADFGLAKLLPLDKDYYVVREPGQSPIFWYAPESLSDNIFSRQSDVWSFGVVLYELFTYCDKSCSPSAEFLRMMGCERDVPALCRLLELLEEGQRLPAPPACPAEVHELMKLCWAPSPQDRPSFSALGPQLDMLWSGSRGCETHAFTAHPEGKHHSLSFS

For `CC(C)(O)CCNc1c(C(=O)NC[C@@H](F)C(C)(C)O)cnn2cc(-c3ccncc3)cc12` [Example 28, (R)—N-(2-fluoro-3-hydroxy-3-methylbutyl)-4-((3-hydroxy-3-methylbutyl)amino)-6-(pyridin-4-yl)pyrrolo[1,2-b]pyridazine-3-carboxamide], the IC50 (JAK3 kinase) was over 50 µM, the “Ratio of JAK3 IC50 to IRAK4 IC50” value (JAK3 kinase) was over 1241 and the IC50 (IRAK4) was 0.0403 µM.

For `CC(C)Nc1c(C(=O)NC[C@@H](F)C(C)(C)O)cnc2cc(-c3cnn(C)c3)nn12` [Example 126, (R)—N-(2-fluoro-3-hydroxy-3-methylbutyl)-7-(isopropylamino)-2-(1-methyl-1H-pyrazol-4-yl)pyrazolo[1,5-a]pyrimidine-6-carboxamide], the IC50 (JAK3 kinase) was over 50 µM, the “Ratio of JAK3 IC50 to IRAK4 IC50” value (JAK3 kinase) was over 208 and the IC50 (IRAK4) was 0.24 µM.

With `CC(C)(O)[C@H](F)CNC(=O)c1cnn2cc(-c3cccnc3)cc2c1NC1CCCC1` [Example 30, (R)-4-(cyclopentylamino)-N-(2-fluoro-3-hydroxy-3-methylbutyl)-6-(pyridin-3-yl)pyrrolo[1,2-b]pyridazine-3-carboxamide] the IC50 (JAK3 kinase) was over 10 µM, the “Ratio of JAK3 IC50 to IRAK4 IC50” value (JAK3 kinase) was over 182 and the IC50 (IRAK4) was 0.055 µM.

For `CC(C)(O)[C@H](F)CNC(=O)c1cnn2cc(-c3ccccc3)cc2c1NC1CC1` [Example 31, (R)-4-(cyclopropylamino)-N-(2-fluoro-3-hydroxy-3-methylbutyl)-6-phenylpyrrolo[1,2-b] pyridazine-3-carboxamide], the IC50 (JAK3 kinase) was over 2 µM, the “Ratio of JAK3 IC50 to IRAK4 IC50” value (JAK3 kinase) was over 61 and the IC50 (IRAK4) was 0.033 µM.

For `CC(C)Nc1c(C(=O)NC[C@@H](F)C(C)(C)O)cnn2cc(C3CC3)cc12` [Example 36, (R)-6-cyclopropyl-N-(2-fluoro-3-hydroxy-3-methylbutyl)-4-(isopropylamino)pyrrolo[1,2-b]pyridazine-3-carboxamide], the IC50 (JAK3 kinase) was over 50 µM, the “Ratio of JAK3 IC50 to IRAK4 IC50” value (JAK3 kinase) was over 1087 and the IC50 (IRAK4) was 0.046 µM.

In the case of `COc1ncccc1-c1cc2c(NC(C)C)c(C(=O)N[C@H]3CC[C@H](NC(C)=O)CC3)cnn2c1` [Example 59, N-((1r,4r)-4-acetamidocyclohexyl)-4-(isopropylamino)-6-(2-methoxypyridin-3-yl)pyrrolo[1,2-b]pyridazine-3-carboxamide], the IC50 (JAK3 kinase) is reported as about 33 µM, the “Ratio of JAK3 IC50 to IRAK4 IC50” value (JAK3 kinase) is reported as about 1138 and the IC50 (IRAK4) is reported as 0.029 µM.

`CC(C)(O)[C@H](F)CNC(=O)c1cnn2cc(-c3cccnc3F)cc2c1NC1CCOCC1` [Example 8, (R)—N-(2-fluoro-3-hydroxy-3-methylbutyl)-6-(2-fluoropyridin-3-yl)-4-((tetrahydro-2H-pyran-4-yl)amino)pyrrolo[1,2-b]pyridazine-3-carboxamide] was tested, and the IC50 (JAK3 kinase) was over 50 µM, the “Ratio of JAK3 IC50 to IRAK4 IC50” value (JAK3 kinase) was over 2000 and the IC50 (IRAK4) was 0.025 µM.

`CC(C)Nc1c(C(=O)NC[C@@H](F)C(C)(C)O)cnc2cc(-c3cccc(Cl)n3)nn12` [Example 153, (R)-2-(6-chloropyridin-2-yl)-N-(2-fluoro-3-hydroxy-3-methylbutyl)-7-(isopropylamino) pyrazolo[1,5-a]pyrimidine-6-carboxamide] was tested, and the IC50 (JAK3 kinase) was over 10 µM, the “Ratio of JAK3 IC50 to IRAK4 IC50” value (JAK3 kinase) was over 8 and the IC50 (IRAK4) was 1.23 µM.

With `CC(C)(O)[C@H](F)CNC(=O)c1cnn2cc(-c3ccc(C#N)c(F)c3)cc2c1NC1CCOCC1` [Example 12, (R)-6-(4-cyano-3-fluorophenyl)-N-(2-fluoro-3-hydroxy-3-methylbutyl)-4-((tetrahydro-2H-pyran-4-yl)amino)pyrrolo[1,2-b]pyridazine-3-carboxamide] the IC50 (JAK3 kinase) was over 50 µM, the “Ratio of JAK3 IC50 to IRAK4 IC50” value (JAK3 kinase) was over 200 and the IC50 (IRAK4) was 0.25 µM.

`CNC(=O)c1cncc(-c2cc3ncc(C(=O)NC[C@@H](F)C(C)(C)O)c(NC(C)C)n3n2)c1` [Example 156, (R)—N-(2-fluoro-3-hydroxy-3-methylbutyl)-7-(isopropylamino)-2-(5-(methylcarbamoyl)pyridin-3-yl)pyrazolo[1,5-a]pyrimidine-6-carboxamide] was tested, and the IC50 (JAK3 kinase) was over 10 µM, the “Ratio of JAK3 IC50 to IRAK4 IC50” value (JAK3 kinase) was over 11 and the IC50 (IRAK4) was 0.91 µM.
